According to article PMC2788676 (Journal of medicinal chemistry, 2009):

Columns and labels:
μ-opioid receptor = settings: read-out: μ-opioid receptor Ki; cited from earlier work
human μ-opiate receptor = human μ-opiate receptor (Homo sapiens, UniProt P35372); assay: [35S]GTP-γ-S functional binding assay, CHO hMOR cells; assay type: biochemical; settings: for Emax: read-out: μ-Agonism Emax %; for efficacy as μ-agonist (in words): [35S]GTP-γ-S functional assay
δ-opiate receptor = δ-opiate receptor (Homo sapiens, UniProt P41143); assay: [3H]DADLE opioid receptor binding, transfected CHO cells; settings: relative to μ Ki
Chain of δ-opiate receptor (P41143 whole entry): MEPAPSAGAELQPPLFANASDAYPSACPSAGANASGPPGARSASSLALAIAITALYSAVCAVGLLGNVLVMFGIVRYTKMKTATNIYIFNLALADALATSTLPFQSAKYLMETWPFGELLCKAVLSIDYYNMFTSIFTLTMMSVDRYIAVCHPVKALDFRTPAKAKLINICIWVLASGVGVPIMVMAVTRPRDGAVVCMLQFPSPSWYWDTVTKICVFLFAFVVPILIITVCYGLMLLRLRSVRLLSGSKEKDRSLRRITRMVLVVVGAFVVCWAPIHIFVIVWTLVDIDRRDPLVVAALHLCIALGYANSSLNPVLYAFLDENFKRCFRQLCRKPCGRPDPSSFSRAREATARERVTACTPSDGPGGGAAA

κ-opiate receptor = κ-opiate receptor (Homo sapiens, UniProt P41145); assay: [3H]U69,593 opioid receptor binding, transfected CHO cells; settings: relative to μ Ki
Chain of κ-opiate receptor (P41145 whole entry): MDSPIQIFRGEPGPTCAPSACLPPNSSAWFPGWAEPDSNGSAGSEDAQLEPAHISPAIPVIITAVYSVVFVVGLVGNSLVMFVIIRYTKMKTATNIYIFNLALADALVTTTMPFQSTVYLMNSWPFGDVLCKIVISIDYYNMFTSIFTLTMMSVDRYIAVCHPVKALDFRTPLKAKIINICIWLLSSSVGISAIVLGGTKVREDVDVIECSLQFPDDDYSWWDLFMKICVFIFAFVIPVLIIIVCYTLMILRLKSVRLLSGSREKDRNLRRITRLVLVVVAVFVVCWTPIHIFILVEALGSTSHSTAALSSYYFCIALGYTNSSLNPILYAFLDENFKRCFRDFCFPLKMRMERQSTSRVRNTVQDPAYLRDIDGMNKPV

Chain of human μ-opiate receptor (P35372 whole entry): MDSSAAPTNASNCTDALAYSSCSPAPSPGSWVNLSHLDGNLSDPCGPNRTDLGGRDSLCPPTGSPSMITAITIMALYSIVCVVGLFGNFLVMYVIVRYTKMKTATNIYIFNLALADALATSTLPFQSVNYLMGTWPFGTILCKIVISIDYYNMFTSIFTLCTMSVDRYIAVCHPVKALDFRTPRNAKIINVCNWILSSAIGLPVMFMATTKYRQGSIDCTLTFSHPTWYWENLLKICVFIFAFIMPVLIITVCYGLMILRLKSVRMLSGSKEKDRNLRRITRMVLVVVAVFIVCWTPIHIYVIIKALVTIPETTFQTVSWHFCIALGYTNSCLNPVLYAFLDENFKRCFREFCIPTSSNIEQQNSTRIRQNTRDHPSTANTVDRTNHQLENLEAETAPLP

Row | SMILES | Ki (μ-opioid receptor) [nM] | EC50 (human μ-opiate receptor) [nM] | Kb (human μ-opiate receptor) [nM] | Emax (human μ-opiate receptor) [%] | efficacy as μ-agonist (in words) (human μ-opiate receptor) | fold less affinity at the δ-receptor than at the μ-receptor (δ-opiate receptor) | fold less affinity at the κ-receptor than at the μ-receptor (κ-opiate receptor)
1 | Oc1ccc2c(c1)[C@]13CCC[C@H](C1)NC[C@@H]3O2 (single isomer, unassigned) [para-d isomer, (3R*,6aS*11aR*)-1,3,4,5,6,11a-hexahydro-2H-3,6a-methanobenzofuro[2,3-c]azocin-8-ol] | 1220 | – | – | – | – | – | –
2 | CC[C@@]12CCNC[C@@H]1Oc1ccc(O)cc12 [Compound 20, 4aS,9aR-(−)-cis-4a-Ethyl-1,2,3,4,4a,9a-hexahydrobenzofuro[2,3-c]pyridin-6-ol] | – | 150 ± 25 | 95 | 97 ± 4 | – | – | –
3 | CC[C@@]12CCN(C)C[C@@H]1Oc1ccc(O)cc12 [Compound 21, 4aS,9aR-(−)-cis-4a-Ethyl-2-methyl-1,2,3,4,4a,9a-hexahydrobenzofuro[2,3-c]pyridin-6-ol] | – | 241 ± 47 | – | 45 ± 2 | little efficacy | – | –
4 | CC[C@@]12CCN(CCc3ccccc3)C[C@@H]1Oc1ccc(O)cc12 [Compound 22, 4aS,9aR-(−)-cis-4a-Ethyl-2-(2-phenylethyl)-1,2,3,4,4a,9a-hexahydrobenzofuro[2,3-c]pyridin-6-ol] | – | 24 ± 6 | – | 84 ± 4 | potent agonist | more than 100 fold | more than 100 fold
5 | CC[C@@]12CCN(C[C@@H](O)c3ccccc3)C[C@@H]1Oc1ccc(O)cc12 [Compound 23, 4aS,9aR,2′S-(−)-cis-2-(2′-Hydroxy-2-phenylethyl)-4a-ethyl-1,2,3,4,4a,9a-hexahydrobenzofuro[2,3-c]pyridin-6-ol] | – | 560 ± 60 | – | 100 ± 3 | – | – | –
6 | CC[C@@]12CCN(C[C@H](O)c3ccccc3)C[C@@H]1Oc1ccc(O)cc12 [Compound 24, 4aS,9aR,2′R-(−)-cis-2-(2′-Hydroxy-2-phenylethyl)-4a-ethyl-1,2,3,4,4a,9a-hexahydrobenzofuro[2,3-c]pyridin-6-ol] | – | 480 ± 90 | – | 36 ± 2 | – | – | –
